Consider 2 compounds from US10836745B2, “Cocrystal, production method thereof, and medicament containing cocrystal” (Takeda Pharmaceutical Company Limited, priority 2015, dated 2020).

Data set [1] in a line: Measurement of solubility (shake-flask method). Format: physicochemical. The following applies: thermodynamic from solid, 37° C., shaken 2 hr. On the procedure: According to the method described in “Thermodynamic Solubility Measurement by the Shake-Flask Method” on page 1229 of Nakashima S., Chem. Pharm. Bull., 61(12) 1228-1238 (2013), the solubility of the crystals and cocrystals of compound (A) was measured. To be specific, the first fluid (JP1), the second fluid (JP2) and the second fluid containing 20 mM sodium glycochenodeoxycholate (JP2/GCDC) of the Japanese Pharmacopoeia disintegration test were added at 400 μL each to the crystals or cocrystals (0.4 mg) of compound (A), and the mixture was heated to 37° C. under air atmosphere, and shaken by a vortex mixer for 2 hr at 500 rpm. After shaking, the mixture was passed through a 0.45 μm PVDF filter, and the filtrate was analyzed by HPLC. From a chromatogram comparison with the standard solution (0.1 mg/mL), the solubility of the crystals of the single compound and the cocrystals was calculated.

The nature of data set [2]: Measurement of dissolution rate (intrinsic dissolution test). Format: physicochemical. As to conditions: 7 mm disc, 200 rpm, second fluid containing cholic acid, 37° C. On the procedure: According to the method described in “2.6. Intrinsic dissolution test” on page 231 of Tsutsumi S., Int. J. Pharm., 421 (2011) 230-236, the dissolution rate of the crystals and cocrystals of compound (A) was measured. To be specific, the crystals or cocrystals of compound (A) (20 mg) was pressurized by a hand press tableting machine at 20 MPa for 10 min to give a 7 mm diameter disc. The prepared disc was adhered to the inside of a rotating shaft of the United States Pharmacopeia dissolution test 1 (basket), and inserted, while rotating at 200 rpm, in the second fluid (250 mL) of the Japanese Pharmacopoeia disintegration test containing cholic acid heated to 37° C. The second fluid containing the crystals or cocrystals was collected by 0.5 mL at 1 min intervals, and analyzed by HPLC. From a chromatogram comparison with the standard solution (0.05 mg/mL), the concentration of the crystals or the cocrystals was calculated, and the dissolution rate thereof was calculated.

In brackets after ≈: the same amount, converted by molar mass. Where two headings read alike, the source gives them in different places.

Experimental for physchem: The base pKa of the compound (A) and the acid pKa of the gentisic acid were measured using a Sirius T3 titrator manufactured by Sirius. The base pKa means an acid dissociation constant from the protonated state, and the acid pKa means the acid dissociation constant of the acid itself.

On to `O=C(O)c1cc(O)ccc1O` [gentisic acid], for which, in “physchem”, the pKa was found to be 3.23.

In the case of `C=CC(=O)N1CC[C@H](Oc2nc(-c3n[nH]c(=O)[nH]3)cc3ccccc23)C1` [compound (A), (S)-3-(1-((1-acryloylpyrrolidin-3-yl)oxy)isoquinolin-3-yl)-1H-1,2,4-triazol-5(4H)-one], the solubility at 2 h is 1.5 µg/mL (≈ 4.27 µM) in data set [1] (pH 1.2, simulated gastric fluid, first fluid (JP1) of Japanese Pharmacopoeia disintegration test, read-out: solubility JP1); 1.5 µg/mL (≈ 4.27 µM) in data set [1] (pH 6.8, aqueous buffer, second fluid (JP2) of Japanese Pharmacopoeia disintegration test, read-out: solubility JP2); 35.6 µg/mL (≈ 101 µM) in data set [1] (pH 6.8, fassgf or other biorelevant, second fluid containing 20 mM sodium glycochenodeoxycholate, read-out: solubility JP2/GCDC). The compound also gave a dissolution rate in data set [2] of 0.2 μg/mm^2/min.

What is called pKa is the negative logarithm of the acid dissociation constant.
